Assay results taken from patent US8697690B2, “Isoindolone M1 receptor positive allosteric modulators” (Merck Sharp & Dohme Corp., priority 2010, dated 2014).

Each molecule was assayed against T1, acetylcholine muscarinic M1 receptor (Homo sapiens, UniProt P11229) (assay: muscarinic FLIPR assay: intracellular calcium in CHOnfat/hM1 cells, potentiation of EC20 acetylcholine). Settings: IP = inflection point calculated from FLIPR values, 4 min preincubation, then EC20 acetylcholine (3 nM final).
T1 construct: expressed in transfected cells; host or cells: CHOnfat cells (CHO with NFAT reporter background), Geneticin-selected
T1 sequence (P11229 1-460): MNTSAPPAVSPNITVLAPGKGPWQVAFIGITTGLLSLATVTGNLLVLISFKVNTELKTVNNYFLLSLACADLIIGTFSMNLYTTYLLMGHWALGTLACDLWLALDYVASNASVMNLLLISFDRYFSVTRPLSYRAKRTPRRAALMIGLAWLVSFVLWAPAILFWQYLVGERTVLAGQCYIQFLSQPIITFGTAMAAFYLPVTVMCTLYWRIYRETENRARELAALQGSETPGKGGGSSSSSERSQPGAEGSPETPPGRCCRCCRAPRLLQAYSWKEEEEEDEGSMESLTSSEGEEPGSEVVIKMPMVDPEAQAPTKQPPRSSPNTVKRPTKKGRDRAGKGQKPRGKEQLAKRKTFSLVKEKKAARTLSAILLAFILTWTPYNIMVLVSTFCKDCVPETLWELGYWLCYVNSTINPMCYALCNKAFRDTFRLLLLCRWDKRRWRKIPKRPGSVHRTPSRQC
Assay type: cell-based
Protocol: The assay studies the effect of one or several concentrations of test compounds on basal or acetylcholine-stimulated Ca^2+ levels using FLIPR.
Compounds are prepared and subjected to a preincubation period of 4 min. Thereafter, a single EC20 concentration of acetylcholine is added to each well (3 nM final). The intracellular Ca^2+ level of each sample is measured and compared to an acetylcholine control to determine any modulatory activity.
Cells: CHOnfat/hM1, hM2, hM3 or hM4 cells are plated 24 hr before the assay at a density of 18,000 cells/well (100 μL) in a 384 well plate. CHOnfat/hM1 and CHOnfat/hM3 Growth Medium: 90% DMEM (Hi Glucose); 10% HI FBS; 2 mM L-glutamine; 0.1 mM NEAA; Pen-Strep; and 1 mg/ml Geneticin, are added. For M2Gqi5CHOnfat and M4Gqi5CHOnfat cells, an additional 600 ug/ml hygromycin is added.
Equipment: 384 well plate, 120 μL addition plate; 96-well Whatman 2 ml Uniplate Incubator, 37° C., 5% CO2; Skatron EMBLA-384 Plate Washer; Multimek Pipetting System; Genesis Freedom 200 System; Mosquito System; Temo Nanoliter Pipetting System; and FLIPR^384 Fluorometric Imaging Plate Reader System are used.
Buffers. Assay Buffer: Hanks Balanced Salt Solution, with 20 mM Hepes, 2.5 mM Probenecid (Sigma P-8761) first dissolved in 1 N NaOH, 1% Bovine Serum Albumin (Sigma A-9647). Dye Loading Buffer: Assay Buffer plus 1% Fetal Bovine Serum and Fluo-4AM/Pluronic Acid Mixture. 2 mM Fluo-4AM ester stock in DMSO (Molecular Probes F-14202) Concentration of 2 μM in buffer for a final concentration of 1 μM in Assay. 20% Pluronic Acid Solution stock, with concentration of 0.04% in Buffer, 0.02% in Assay.
65 μL of 2 mM Fluo-4AM are mixed with 130 μL of 20% Pluronic Acid. The resulting solution and 650 μL FBS is added to the assay buffer for a total volume of 65 mL. Positive Controls: 4-Br-A23187: 10 mM in DMSO; final concentration […]. Acetylcholine: 10 mM in water, working stock at both 20 μM and 30 μM in assay buffer, final concentration of 10 μM. This is used to check the maximum stimulation of the CHOK1/hM1 cells. 20 μM (2×) acetylcholine is added in the preincubation part of the assay, and the 30 μM (3×) stock is added in the second part. (EC20)Acetylcholine: 10 mM in water, working stock of 9 nM (3×), and final concentration in assay is 3 nM. This is used after the preincubation with test compounds. Addition of the EC20 Acetylcholine to each well with a test compound will ascertain any modulator activity. 24 wells contain 3 nM Acetylcholine alone as a control.
Determining Activity of Putative Compounds:
Screening Plate Compounds are titrated in 96-well plates (columns 2-11), 100% DMSO, started at a concentration of 15 mM (150× stock concentration), and 3-fold serial dilutions using Genesis Freedom200 System. Four 96-well plates are combined into a 384-well plate using Mosquito Nanoliter Pipetting System by transferring 1 μl of serial diluted compounds to each well, and 1 mM acetylcholine (100× stock concentration) were added as a control. Using Temo, 49 μl assay buffer is added to each well of the 384-well plate right before assay.
In a 96-well Whatman 2 ml Uniplate, 9 nM Acetylcholine (3×) is pipetted into wells corresponding to the screening compounds, and into control wells. The 30 μM acetylcholine control (3×) is added into control wells, and the 3× agonist plate is transferred into a 384 well plate.
Cells are washed three times with 100 μL of buffer, leaving 30 μL of buffer in each well. Using Multimek, 30 μL of Dye Loading Buffer is added into each well and incubated at 37° C., 5% CO2 for up to one hr.
After 60 min, the cells are washed three times with 100 μL of buffer, leaving 30 μL of buffer in each well. The cell plate, screening plate, and agonist addition plates are placed on the platform in the FLIPR and the door closed. A signal test to check background fluorescence and basal fluorescence signal is performed. Laser intensity is adjusted if necessary. […]

EC50	SMILES
0.665 µM	CC1c2c(cc(Cc3ccc(Cl)nc3)c3ccccc23)C(=O)N1c1ccccc1F (racemic) [Example 15, (±)-5-[(6-Chloropyridin-3-yl)methyl]-2-(2-fluorophenyl)-1-methyl-1,2-dihydro-3H-benzo[e]isoinol-3-one]
0.049 µM	O=C1c2nc(Cc3ccc(Cl)nc3)c3ccccc3c2CN1[C@H]1CCCC[C@@H]1O (racemic) [Example 16, (±)-5-[(6-Chloropyridin-3-yl)methyl]-2-[trans-2-hydroxycyclohexyl]-1,2-dihydro-3H-pyrrolo[3,4-c]isoquinoline-3-one]
0.029 µM	O=C1c2nc(Cc3ccc(-n4cccn4)nc3)c3ccccc3c2CN1[C@H]1CCCC[C@@H]1O (racemic) [Example 17, (±)-2-[trans-2-Hydroxycyclohexyl]-5-{[6-(1H-pyrazol-1-yl)pyridine-3-yl]methyl}-1,2-dihydro-3H-pyrrolo[3,4-c]isoquinoline-3-one]
0.053 µM	COc1ccc(Cc2cc3c(c4ccccc24)CN([C@H]2CCCC[C@@H]2O)C3=O)cc1 [Example 1, 2-[(1S,2S)-2-Hydroxycyclohexyl]-5-(4-methoxybenzyl)-1,2-dihydro-3H-benzo[e]isoindol-3-one]
0.018 µM	Cc1ccc(Cc2cc3c(c4ccccc24)CN([C@H]2CCCC[C@@H]2O)C3=O)cn1 [Example 2, 2-[(1S,2S)-2-Hydroxycyclohexyl]-5-[(6-methylpyridin-3-yl)methyl]-1,2-dihydro-3H-benzo[e]isoindol-3-one]
0.011 µM	C=Cc1ccc(Cc2cc3c(c4ccccc24)CN([C@H]2CCCC[C@@H]2O)C3=O)cn1 [Example 3, 2-[(1S,2S)-2-Hydroxycyclohexyl]-5-[(6-vinylpyridin-3-yl)methyl]-1,2-dihydro-3H-benzo[e]isoindol-3-one]
0.31 µM	O=C1c2cc(Cc3ccc(Cl)nc3)c3ccccc3c2CN1[C@H]1CCCC[C@@H]1F [Example 4, 5-[(6-Chloropyridin-3-yl)methyl]-2-[(2S)-2-fluorocyclohexyl]-1,2-dihydro-3H-benzo[e]isoindol-3-one]
2.47 µM	O=C1c2cc(Cc3ccc(Cl)nc3)c3ccccc3c2CN1C1C=CCCC1 (stereo not shown) [Example 5, 5-[(6-Chloropyridin-3-yl)methyl]-2-cyclohex-2-en-1-yl-1,2-dihydro-3H-benzo[e]isoindol-3-one]
0.011 µM	O=C1c2cc(Cc3cccnc3)c3ccccc3c2CN1[C@H]1CCCC[C@@H]1O [Example 6, 2-[(1S,2S)-2-Hydroxycyclohexyl]-5-(pyridin-3-ylmethyl)-1,2-dihydro-3H-benzo[e]isoindol-3-one]
0.014 µM	O=C1c2cc(Cc3ccc(N4CCOCC4)nc3)c3ccccc3c2CN1[C@H]1CCCC[C@@H]1O [Example 7, 2-[(1S,2S)-2-Hydroxycyclohexyl]-5-[(6-morpholin-4-ylpyridin-3-yl)methyl]-1,2-dihydro-3H-benzo[e]isoindol-3-one]
0.012 µM	O=C1c2cc(Cc3ccc(Cl)nc3)c3ccccc3c2CN1[C@H]1CCOC[C@@H]1O [Example 8, 5-[(6-Chloropyridin-3-yl)methyl]-2-[(3R,4S)-3-hydroxytetrahydro-2H-pyran-4-yl]-1,2-dihydro-3H-benzo[e]isoindol-3-one]
0.013 µM	N#Cc1ccc(Cc2cc3c(c4ccccc24)CN([C@H]2CCCC[C@@H]2O)C3=O)cn1 [Example 9, 5-({2-[(1S,2S)-2-Hydroxycyclohexyl]-3-oxo-2,3-dihydro-1H-benzo[e]isoindol-5-yl}methyl)pyridine-2-carbonitrile]
0.029 µM	CSc1ccc(Cc2cc3c(c4ccccc24)CN([C@H]2CCCC[C@@H]2O)C3=O)cn1 [Example 10, 2-[(1S,2S)-2-Hydroxycyclohexyl]-5-{[6-(methylthio)pyridine-3-yl]methyl}-1,2-dihydro-3H-benzo[e]isoindol-3-one]
0.052 µM	COc1ccc(Cc2cc3c(c4ccccc24)CN([C@H]2COCC[C@@H]2O)C3=O)cn1 [Example 11, 2-[(3S,4S)-4-Hydroxytetrahydro-2H-pyran-3-yl]-5-[(6-methoxypyridin-3-yl)methyl]-1,2-dihydro-3H-benzo[e]isoindol-3-one]
5.2 µM	CC(=O)O[C@H]1COCC[C@@H]1N1Cc2c(cc(Cc3ccc(O)nc3)c3ccccc23)C1=O [Example 12, 2-O-Acetyl-1,5-anhydro-3,4-dideoxy-3-{3-oxo-5-[(6-oxo-1,6-dihydroyridin-3-yl)methyl]-1,3-dihydro-2H-benzo[e]isoindol-2-yl)-L-threo-pentitol]
0.02 µM	O=C1c2cc(Cc3ccc(O)nc3)c3ccccc3c2CN1[C@H]1CCOC[C@@H]1O [Example 13, 1,5-Anhydro-2,3-dideoxy-3-{3-oxo-5-[(6-oxo-1,6-dihydropyridin-3-yl)methyl]-1,3-dihydro-2H-benzo[e]isoindol-2-yl}-L-threo-pentitol]
0.144 µM	COc1ccc(Cc2cc3c(c4ccccc24)CN(c2ncccc2C(F)(F)F)C3=O)cn1 [Example 14, 5-[(6-Methoxypyridin-3-yl)methyl]-2-[3-(trifluoromethyl)pyridin-2-yl]-1,2-dihydro-3H-benzo[e]isoindol-3-one]
0.31 µM	COc1ccc(Cc2cc3c(c4ncccc24)C(C)(C)N([C@H]2CCCC[C@@H]2O)C3=O)cn1 [Example 18, 8-[(1S,2S)-2-Hydroxycyclohexyl]-5-[(6-methoxypyridin-3-yl)methyl]-9,9-dimethyl-8,9-dihydro-7H-pyrrolo[3,4-h]quinolin-7-one]
0.041 µM	O=C1c2cc(Cc3ccc(OCc4ccccc4)nc3)c3cccnc3c2CN1[C@H]1CCCC[C@@H]1O [Example 19]
0.2 µM	O=C1CCC(Cc2cc3c(c4ncccc24)CN([C@H]2CCCC[C@@H]2O)C3=O)CN1 (stereo partly drawn) [Example 20, 8-[(1S,2S)-2-Hydroxycyclohexyl]-5-[(6-oxopiperidin-3-yl)methyl]-3,9-dihydro-7H-pyrrolo[3,4-h]quinolin-7-one]
0.019 µM	O=C1c2cc(Cc3ccc(Cl)nc3)c3cccnc3c2C(CC(O)CO)N1[C@H]1CCCC[C@@H]1O (stereo partly drawn) [Example 21, 5-[(6-Chloropyridin-3-yl)methyl]-9-(2,3-dihydroxypropyl)-8-[(1S,2S)-2-hydroxycyclohexyl]-8,9-dihydro-7H-pyrrolo[3,4-h]quinolin-7-one]
0.015 µM	O=CCC1c2c(cc(Cc3ccc(Cl)nc3)c3cccnc23)C(=O)N1[C@H]1CCCC[C@@H]1O (stereo partly drawn) [Example 22, {5-[(6-Chloropyridin-3-yl)methyl]-8-[(1S,2S)-2-hydroxycyclohexyl]-7-oxo-8,9-dihydro-7H-pyrrolo[3,4-h]quinolin-9-yl}acetaldehyde]
